Results on 1 molecule are retold here after patent US20220098160A1, “NOVEL CDK 8/19 INHIBITORS” (BIOCAD, priority 2018, published 2022).

In one data set the test system is MV4-11 cell line. Put plainly: Antiproliferative activity on MV4-11 cell line (AlamarBlue). It is filed as cell-based. The following applies: Homo sapiens, 120 h incubation, average of several runs, read-out: MV-4-11 IC50. As to the method:
The antiproliferative activity of the CDK8 inhibitors according to the present invention was measured in a cell test on a finite MV4-11 cell line (biphenotypic myelomonocytic leukemia, ATCC© CRL-9591™) using an intravital AlamarBlue dye (ThermoFisher, #DAL1100). The cells were grown on an RPMI-1640 medium (PanEco, #C330p) supplemented with 10% FBS (Gibco, #16140-071), then washed and re-seeded on a culture medium with 10% FBS (Gibco, #16140-071) in 96-well culture plates (Corning, #3599) in the amount of ˜10×10^3 cells per 100 μl of medium per well. The tested compounds were dissolved in DMSO and diluted with 10% FBS (Gibco, #16140-071) to a final concentration ranging from 0 to 100 μM. […] At the end of the incubation period, 15 μl of AlamarBlue reagent (ThermoFisher, #DAL1100) were added to the wells. The contents of the plates were mixed using an orbital shaker (Biosan, Latvia), and incubated further from 3 to 5 hours at 37° C. in an incubator with 5% C02. The number of living cells was detected using a microplate spectrophotometer (Tecan Infinite M200Pro, Switzerland) by measuring a fluorescence signal at an excitation wavelength (λEx) of 540 nm and emission wavelength (λEm) of 590 nm.
The IC50 value was determined using the Magellan 7.2 program (Tesap, Switzerland) by approximating the experimental points using a four-parameter model with the Levenberg-Marquardt optimization (Table 10).
(Alamar Blue is a resazurin reagent that responds to reducing activity.)

Data set [1] is described as follows: Chemical stability in human blood plasma. In kind it is in vitro ADME. The following applies: pooled human blood plasma, 10 μM, 4 hours at 37° C., amount of substance remaining. How it is done: Chemical stability of the compounds described herein was determined in human blood plasma.
The determination of stability in human blood plasma was performed using a pooled human blood plasma taken from ten healthy donors. The initial solution of the candidate (10 mM in DMSO) was diluted with the pooled blood plasma to a concentration of 10 μM (test solution). The test solution was incubated in a solid-state thermostat for 4 hours at 37° C. The HPLC method and Agilent1200 chromatograph (Agilent, USA) were used to determine the peak areas of the compounds in the test samples corresponding to the initial test time (before incubation) and the final test time (after incubation in a solid-state thermostat for 4 hours at 37° C.) with preliminary precipitation of proteins using acetonitrile. Chromatographic analysis was performed using a gradient elution mode at a flow rate of 1 ml/min. The amount of substance in the sample expressed in % was determined after the thermostat treatment.

What is called IC50 is the concentration that gives 50% inhibition.

For `CN1CCN(C(=O)c2ccc3cc(CCNc4ccnc5ccc(C#N)cc45)ccc3c2)CC1` [Compound 5, 4-((2-(6-(4-methylpiperazine-1-carbonyl)naphth-2-yl)ethyl)amino) quinoline-6-carbonitryl], the IC50 with MV4-11 cell line was found to be 125 nM. Besides, in data set [1], the “Stability in blood plasma, %” value is on record as 100%.
